Assay results as given in patent publication US20240116937A1, “Polymorph of (1S,2S,3S,5R)-3-((6-(difluoromethyl)-5-fluoro-1,2,3,4-tetrahydroisoquinolin-8-yl)oxy)-5-(4-methyl-7H-pyrrolo[2,3-D]pyrimidin-7-yl)cyclopentane-1,2-diol” (Pfizer Inc., priority 2020, published 2024).

Experiment: Hygroscopicity: % mass change (ref dry mass) versus RH, free base compared to hydrochloride salt
Assay type: physicochemical
Description: Hygroscopicity of Free Base (1S,2S,3S,5R)-3-((6-(difluoromethyl)-5-fluoro-1,2,3,4-tetrahydroisoquinolin-8-yl)oxy)-5-(4-methyl-7H-pyrrolo[2,3-d]pyrimidin-7-yl)cyclopentane-1,2-diol Compared to Crystalline (1S,2S,3S,5R)-3-((6-(difluoromethyl)-5-fluoro-1,2,3,4-tetrahydroisoquinolin-8-yl)oxy)-5-(4-methyl-7H-pyrrolo[2,3-d]pyrimidin-7-yl)cyclopentane-1,2-diol hydrochloride salt

physical stability (hygroscopicity) relative to the dihydrochloride salt of WO2017/212385: low hygroscopicity
% Mass-Ref Dry mass (RH 10): 0.1%
% Mass-Ref Dry mass (RH 20): 0.3%
% Mass-Ref Dry mass (RH 30): 0.4%
% Mass-Ref Dry mass (RH 40): 1.8%
% Mass-Ref Dry mass (RH 50): 2.0%
% Mass-Ref Dry mass (RH 60): 2.1%
% Mass-Ref Dry mass (RH 70): 2.2%
% Mass-Ref Dry mass (RH 80): 2.2%
% Mass-Ref Dry mass (RH 90): 2.3%
Structure (SMILES): Cc1ncnc2c1ccn2[C@@H]1C[C@H](Oc2cc(C(F)F)c(F)c3c2CNCC3)[C@@H](O)[C@H]1O [Free Base, (1S,2S,3S,5R)-3-((6-(difluoromethyl)-5-fluoro-1,2,3,4-tetrahydroisoquinolin-8-yl)oxy)-5-(4-methyl-7H-pyrrolo[2,3-d]pyrimidin-7-yl)cyclopentane-1,2-diol]
